Tests used:
human μ-opiate receptor = target: T1, human μ-opiate receptor (Homo sapiens, UniProt P35372); test: Affinity for the human μ-opiate receptor ([3H]-naloxone displacement, SPA); details: test substance 1 μmol/l; inhibition of specific [3H]-naloxone binding; CHO-K1 receptor membrane preparation; read-out: μ-Opioid receptor [1 μM] % inhibition
T1 construct: purchased PerkinElmer Life Sciences, Zaventem, Belgium RB-HOM; host or cells: CHO-K1 cells (membrane preparation)
Experimental: Studies of the Effectiveness of the Compounds According to the Invention Method for determining the affinity for the human μ-opiate receptor
The receptor affinity for the human μ-opiate receptor is determined in a homogeneous batch on microtitre plates. To this end, serial dilutions of the substances to be tested are incubated for 90 minutes at room temperature with a receptor membrane preparation (15-40 μg of protein/250 μl of incubation batch) of CHO-K1 cells, which express the human μ-opiate receptor (RB-HOM receptor membrane preparation from PerkinElmer Life Sciences, Zaventem, Belgium), in the presence of 1 nmol/l of the radioactive ligand [^3H]-naloxone (NET719, PerkinElmer Life Sciences, Zaventem, Belgium) and 1 mg of WGA-SPA beads (wheatgerm agglutinin SPA beads from Amersham/Pharmacia, Freiburg, Germany) in a total volume of 250 μl. The incubation buffer used is 50 mmol/l of Tris-HCl supplemented with 0.06 wt. % bovine serum albumin. In order to determine non-specific binding, 100 μmol/l of naloxone is additionally added. When the ninety-minute incubation time has ended, the microtitre plates are centrifuged off for 20 minutes at 1000 g and the radioactivity is measured in a β-counter (Microbeta-Trilux, PerkinElmer Wallac, Freiburg, Germany). The percentage displacement of the radioactive ligand from its binding to the human μ-opiate receptor at a concentration of the test substances of 1 μmol/l is determined and stated as the percentage inhibition of specific binding. On the basis of the percentage displacement by different concentrations of the test substances, IC50 inhibitory concentrations, which effect 50% displacement of the radioactive ligand, are calculated. Ki values for the test substances are obtained by conversion by means of the Cheng-Prusoff equation.

[1] = target: T2, bradykinin receptor 1 (B1R) of the rat (Rattus norvegicus, UniProt P97583); test: Functional study on the bradykinin receptor 1 (B1R), rat: FLIPR Ca2+ influx assay; format: cell-based; details: test substance 10 μM; CHO K1 cells transfected with rat B1R; Des-Arg9-bradykinin at EC80; Ca2+ influx (Fluo-4, FLIPR); read-out: B1R antagonism, rat [10 μM] % inhibition
T2 construct: expressed in transfected cells; host or cells: CHO K1 cells
T2 sequence (P97583 1-337): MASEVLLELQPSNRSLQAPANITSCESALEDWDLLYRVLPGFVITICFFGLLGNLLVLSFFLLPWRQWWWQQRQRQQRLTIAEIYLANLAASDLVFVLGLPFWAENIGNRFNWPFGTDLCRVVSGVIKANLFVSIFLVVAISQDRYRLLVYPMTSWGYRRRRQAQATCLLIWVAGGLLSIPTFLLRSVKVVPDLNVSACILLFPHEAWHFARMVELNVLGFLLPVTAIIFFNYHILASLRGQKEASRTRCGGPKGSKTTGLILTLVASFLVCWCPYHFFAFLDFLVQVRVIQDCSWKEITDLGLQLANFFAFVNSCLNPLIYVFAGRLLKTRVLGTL
Outline: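 CHO K1 cells stably expressing rat B1R, Fluo-4-loaded, read on FLIPR (ex 488/em 540 nm, peak fluorescence). Test substances added first (agonism vs 10 μM Des-Arg9-bradykinin), then after 10-20 min Des-Arg9-bradykinin at EC80; % inhibition and IC50 from concentration series, n=2-3, N≥2.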

[2] = target: T3, human bradykinin receptor 1 (B1R) (Homo sapiens, UniProt P46663); test: Functional study on the bradykinin receptor 1 (B1R), human: FLIPR Ca2+ influx assay; format: cell-based; details: test substance 10 μM; CHO K1 cells transfected with human B1R; Lys-Des-Arg9-bradykinin at EC80; Ca2+ influx (Fluo-4, FLIPR); read-out: B1R antagonism, human [10 μM] % inhibition
T3 construct: expressed in transfected cells; host or cells: CHO K1 cells
T3 sequence (P46663 1-353): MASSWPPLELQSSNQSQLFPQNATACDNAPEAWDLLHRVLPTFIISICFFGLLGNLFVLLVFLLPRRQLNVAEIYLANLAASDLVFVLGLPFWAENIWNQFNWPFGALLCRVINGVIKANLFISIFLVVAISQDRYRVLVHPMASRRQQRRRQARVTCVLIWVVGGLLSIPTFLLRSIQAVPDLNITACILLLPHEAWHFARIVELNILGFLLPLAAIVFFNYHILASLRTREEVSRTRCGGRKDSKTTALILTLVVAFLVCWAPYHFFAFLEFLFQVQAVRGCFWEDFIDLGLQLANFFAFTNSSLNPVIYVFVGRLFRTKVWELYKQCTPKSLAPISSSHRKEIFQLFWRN
Outline: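 CHO K1 cells stably expressing human B1R were loaded with Fluo-4, and Ca2+ fluorescence was read on FLIPR (ex 488/em 540 nm). Compound was added first (10 μM for % activation against Lys-Des-Arg9-bradykinin ≥0.5 nM). After 10-20 min, Lys-Des-Arg9-bradykinin was added at EC80 for % inhibition; IC50 came from concentration series, n=2-3, N≥2.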

T1 sequence (P35372 whole entry): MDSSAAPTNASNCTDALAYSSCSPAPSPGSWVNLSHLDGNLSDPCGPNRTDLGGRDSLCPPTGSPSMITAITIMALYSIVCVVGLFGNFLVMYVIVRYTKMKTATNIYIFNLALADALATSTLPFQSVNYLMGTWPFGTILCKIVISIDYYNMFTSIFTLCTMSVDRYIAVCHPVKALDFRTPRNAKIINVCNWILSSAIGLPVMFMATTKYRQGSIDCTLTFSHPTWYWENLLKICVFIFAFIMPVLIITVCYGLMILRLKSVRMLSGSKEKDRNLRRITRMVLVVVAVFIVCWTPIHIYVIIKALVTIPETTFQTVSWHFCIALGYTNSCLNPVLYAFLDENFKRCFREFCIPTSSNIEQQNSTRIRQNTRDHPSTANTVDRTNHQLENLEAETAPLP

Structure (SMILES) | inhibition at 1 µM (human μ-opiate receptor) [%] | inhibition at 10 µM [1] [%] | inhibition at 10 µM [2] [%]
O=C(CC1C(=O)Nc2ccccc2N1S(=O)(=O)c1ccc(Cl)c(Cl)c1)NCC1CCC(C(c2ccccc2)N2CCCC2)CC1 (stereo not drawn) [Example 67, 2-[1-(3,4-dichloro-benzenesulfonyl)-3-oxo-1,2,3,4-tetrahydro-quinoxalin-2-yl]-N-[4-(phenyl-pyrrolidin-1-yl-methyl)-cyclohexylmethyl]-acetamide] | 64 | 104 | 104
O=C(CC1C(=O)Nc2ccccc2N1S(=O)(=O)c1ccc(Cl)c(Cl)c1)NC1CCC(C(CCc2ccccc2)N2CCCCC2)CC1 (stereo not drawn) [Example 68, 2-[1-(3,4-dichloro-benzenesulfonyl)-3-oxo-1,2,3,4-tetrahydro-quinoxalin-2-yl]-N-[4-(3-phenyl-1-piperidin-1-yl-propyl)-cyclohexyl]-acetamide] | 30 | 37 | 104
O=C(CC1C(=O)Nc2ccccc2N1S(=O)(=O)c1ccc(Cl)c(Cl)c1)NC1CCC(C(CCc2ccccc2)N2CCOCC2)CC1 (stereo not drawn) [Example 69, 2-[1-(3,4-dichloro-benzenesulfonyl)-3-oxo-1,2,3,4-tetrahydro-quinoxalin-2-yl]-N-[4-(1-morpholin-4-yl-3-phenyl-propyl)-cyclohexyl]-acetamide] | 7 | 19 | 105
CN1CCN(C(c2ccccc2)C2CCC(NC(=O)CC3C(=O)Nc4ccccc4N3S(=O)(=O)c3ccc(Cl)c(Cl)c3)CC2)CC1 (stereo not drawn) [Example 70, 2-[1-(3,4-dichloro-benzenesulfonyl)-3-oxo-1,2,3,4-tetrahydro-quinoxalin-2-yl]-N-{4-[(4-methyl-piperazin-1-yl)-phenyl-methyl]-cyclohexyl}-acetamide] | 11 | 98 | 104
O=C1Nc2ccccc2N(S(=O)(=O)c2ccc(Cl)c(Cl)c2)C1CC(=O)N1CCC(C(c2ccccc2)N2CCOCC2)CC1 (stereo not drawn) [Example 71, 4-(3,4-dichloro-benzenesulfonyl)-3-{2-[4-(morpholin-4-yl-phenyl-methyl)piperidin-1-yl]-2-oxo-ethyl}-3,4-dihydro-1H-quinoxalin-2-one] | 12 | 32 | 104
O=C1Nc2ccccc2N(S(=O)(=O)c2ccc(Cl)c(Cl)c2)C1CC(=O)N1CCC(C(Cc2ccccc2)N2CCOCC2)CC1 (stereo not drawn) [Example 72, 4-(3,4-dichlorophenylsulfonyl)-3-(2-(4-(1-morpholino-2-phenylethyl)piperidin-1-yl)-2-oxoethyl)-3,4-dihydroquinoxalin-2(1H)-one] | 26 | 30 | 102
O=C(CC1CCCN1S(=O)(=O)c1ccc(Cl)c(Cl)c1)NCC1CCC(C(c2ccccc2)N2CCOCC2)CC1 (stereo not drawn) [Example 73, 2-[1-(3,4-dichloro-benzenesulfonyl)-pyrrolidin-2-yl]-N-[4-(morpholin-4-yl-phenyl-methyl)-cyclohexylmethyl]-acetamide] | 17 | 36 | 76.3
O=C(CC1CCCN1S(=O)(=O)c1ccc(Cl)c(Cl)c1)NCC1CCC(C(CCc2ccccc2)N2CCOCC2)CC1 (stereo not drawn) [Example 74, 2-[1-(3,4-dichloro-benzenesulfonyl)-pyrrolidin-2-yl]-N-[4-(1-morpholin-4-yl-3-phenyl-propyl)-cyclohexylmethyl]-acetamide] | 7 | 19 | 54.7
O=C(CC1CCCN1S(=O)(=O)c1ccc(Cl)c(Cl)c1)NCC1CCC(C(CCc2ccccc2)N2CCCC2)CC1 (stereo not drawn) [Example 75, 2-[1-(3,4-dichloro-benzenesulfonyl)-pyrrolidin-2-yl]-N-[4-(3-phenyl-1-pyrrolidin-1-yl-propyl)-cyclohexylmethyl]-acetamide] | 65 | 2 | 91.7
O=C(CC1CCCN1S(=O)(=O)c1ccc(Cl)c(Cl)c1)NCC1CCC(C(c2ccccc2)N2CCCC2)CC1 (stereo not drawn) [Example 76, 2-[1-(3,4-dichloro-benzenesulfonyl)-pyrrolidin-2-yl]-N-[4-(phenyl-pyrrolidin-1-ylmethyl)-cyclohexylmethyl]-acetamide] | 84 | 9 | 80.4
O=C(CC1CCCN1S(=O)(=O)c1ccc(Cl)c(Cl)c1)NC1CCC(C(CCc2ccccc2)N2CCCCC2)CC1 (stereo not drawn) [Example 77, 2-(1-(3,4-dichlorophenylsulfonyl)pyrrolidin-2-yl)-N-(4-(3-phenyl-1-(piperidin-1-yl)propyl)cyclohexyl)acetamide] | 35 | 1 | 102
O=C(CC1CCCN1S(=O)(=O)c1ccc(Cl)c(Cl)c1)NC1CCC(C(CCc2ccccc2)N2CCOCC2)CC1 (stereo not drawn) [Example 78, 2-(1-(3,4-dichlorophenylsulfonyl)pyrrolidin-2-yl)-N-(4-(1-morpholino-3-phenylpropyl)cyclohexyl)acetamide] | 18 | 10 | 78.3
CN1CCN(C(c2ccccc2)C2CCC(NC(=O)CC3CCCN3S(=O)(=O)c3ccc(Cl)c(Cl)c3)CC2)CC1 (stereo not drawn) [Example 79, 2-[1-(3,4-dichloro-benzenesulfonyl)-pyrrolidin-2-yl]-N-{4-[(4-methyl-piperazin-1-yl)-phenyl-methyl]-cyclohexyl}-acetamide] | 47 | 33 | 96.8
O=C(CC1CCCN1S(=O)(=O)c1ccc(Cl)c(Cl)c1)N1CCC(C(c2ccccc2)N2CCOCC2)CC1 (stereo not drawn) [Example 80, 2-[1-(3,4-dichloro-benzenesulfonyl)-pyrrolidin-2-yl]-1-[4-(morpholin-4-yl-phenylmethyl)-piperidin-1-yl]-ethanone] | 7 | 15 | 16.7
O=C(CC1CCCN1S(=O)(=O)c1ccc(Cl)c(Cl)c1)N1CCC(C(Cc2ccccc2)N2CCOCC2)CC1 (stereo not drawn) [Example 81, 2-(1-(3,4-dichlorophenylsulfonyl)pyrrolidin-2-yl)-1-(4-(1-morpholino-2-phenylethyl)piperidin-1-yl)ethanone] | 16 | 56 | 65.3
O=C(CC1CCCCN1S(=O)(=O)c1ccc(Cl)c(Cl)c1)NCC1CCC(C(c2ccccc2)N2CCOCC2)CC1 (stereo not drawn) [Example 82, 2-[1-(3,4-dichloro-benzenesulfonyl)-piperidin-2-yl]-N-[4-(morpholin-4-yl-phenylmethyl)-cyclohexylmethyl]-acetamide] | 23 | 7 | 23.5

Reference: US8119633B2, “Substituted sulfonamide compounds” (Gruenenthal GmbH, priority 2007, dated 2012)
